Test results taken from PubChem BioAssay AID504555 (Johns Hopkins Ion Channel Center, 2011).
Activity calls are given as the source filed them.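 Rule for the calls: active = dose dependent inhibition of hERG heart potassium channel current within the tested dose range; inactive = the rest.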

What was measured:
[1] = target: Voltage-gated inwardly rectifying potassium channel KCNH2 (Homo sapiens) (UniProt Q12809); assay: hERG potassium channel inhibition, SAR follow-up, selectivity assay for Kir2.1 inhibitor project, CHO cells, automated electrophysiology (AID 504555); settings: automated patch clamp, tail current
[2] = target: Inward rectifier potassium channel 2 (Mus musculus) (UniProt P35561); assay: as above; settings: automated patch clamp, tail current, at 30 µM (top of the series)
Sequence of Inward rectifier potassium channel 2 (Mus musculus) (P35561 whole entry, looked up): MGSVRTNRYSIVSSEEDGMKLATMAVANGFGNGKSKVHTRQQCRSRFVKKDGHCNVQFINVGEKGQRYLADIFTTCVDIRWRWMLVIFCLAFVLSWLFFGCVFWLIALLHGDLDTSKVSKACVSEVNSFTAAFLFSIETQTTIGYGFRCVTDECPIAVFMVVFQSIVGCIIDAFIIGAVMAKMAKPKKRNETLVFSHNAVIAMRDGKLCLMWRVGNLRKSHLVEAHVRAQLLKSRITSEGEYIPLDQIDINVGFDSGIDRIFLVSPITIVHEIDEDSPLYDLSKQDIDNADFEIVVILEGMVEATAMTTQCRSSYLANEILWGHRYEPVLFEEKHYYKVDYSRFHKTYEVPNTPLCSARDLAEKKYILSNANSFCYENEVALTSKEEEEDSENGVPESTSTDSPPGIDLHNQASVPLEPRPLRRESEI

Sequence of Voltage-gated inwardly rectifying potassium channel KCNH2 (Homo sapiens) (Q12809 whole entry, looked up): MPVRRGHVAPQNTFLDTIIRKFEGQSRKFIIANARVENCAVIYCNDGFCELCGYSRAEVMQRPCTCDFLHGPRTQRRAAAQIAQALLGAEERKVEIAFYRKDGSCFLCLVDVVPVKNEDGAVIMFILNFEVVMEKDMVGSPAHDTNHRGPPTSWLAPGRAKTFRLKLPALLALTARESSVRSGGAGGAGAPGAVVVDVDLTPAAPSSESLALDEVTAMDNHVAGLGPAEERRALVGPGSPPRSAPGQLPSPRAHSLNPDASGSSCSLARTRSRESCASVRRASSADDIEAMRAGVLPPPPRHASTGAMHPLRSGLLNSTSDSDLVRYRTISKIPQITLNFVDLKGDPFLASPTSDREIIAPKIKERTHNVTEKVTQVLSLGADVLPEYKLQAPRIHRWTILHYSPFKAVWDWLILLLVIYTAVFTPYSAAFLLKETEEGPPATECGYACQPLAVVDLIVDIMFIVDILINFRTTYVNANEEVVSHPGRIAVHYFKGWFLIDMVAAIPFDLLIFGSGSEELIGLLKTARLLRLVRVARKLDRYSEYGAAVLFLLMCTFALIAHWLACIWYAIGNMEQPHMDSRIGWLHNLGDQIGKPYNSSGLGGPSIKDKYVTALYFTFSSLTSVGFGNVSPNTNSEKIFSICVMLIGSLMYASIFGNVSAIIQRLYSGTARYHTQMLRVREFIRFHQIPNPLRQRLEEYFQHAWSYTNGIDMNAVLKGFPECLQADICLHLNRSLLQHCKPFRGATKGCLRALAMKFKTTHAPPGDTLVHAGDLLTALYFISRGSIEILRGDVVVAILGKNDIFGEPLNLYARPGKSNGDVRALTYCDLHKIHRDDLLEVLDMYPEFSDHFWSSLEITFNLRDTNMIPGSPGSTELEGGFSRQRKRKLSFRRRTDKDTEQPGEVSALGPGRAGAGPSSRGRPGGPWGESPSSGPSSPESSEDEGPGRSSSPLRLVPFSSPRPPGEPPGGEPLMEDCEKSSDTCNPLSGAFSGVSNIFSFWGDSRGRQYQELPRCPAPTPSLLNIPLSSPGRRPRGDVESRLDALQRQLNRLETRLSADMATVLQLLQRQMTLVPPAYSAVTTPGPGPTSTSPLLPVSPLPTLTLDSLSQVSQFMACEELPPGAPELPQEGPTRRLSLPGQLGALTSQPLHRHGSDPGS

For `Cc1ccc2nc(NCc3ccccc3)[nH]c2c1`, the IC50 [1] was 13 µM.
`C[C@@H](NS(=O)(=O)c1cccc(Br)c1)c1ccccc1` was tested, and the IC50 [1] was 17.6 µM.
With `O=S(=O)(c1ccc(F)cc1)N1CCCc2ccccc21` the “current change, negative = inhibition” value [2] was “inactive”.
Compound `Cc1ccc(S(=O)(=O)N[C@@H](C)c2ccccc2)cc1` has an IC50 [1] of 27.6 µM.
Work on `Cc1noc(C)c1COC(=O)CCN1c2ccccc2Sc2ccccc21` yielded an IC50 [1] of 29.1 µM.
`c1ccc(CNc2c3ccccc3nc3ccccc23)cc1` showed an IC50 [1] of 0.433 µM.
Work on `Cc1ccc(Nc2cc(C)nc3c(C)cccc23)cc1` yielded an IC50 [1] of 2.33 µM.
`c1ccc(COc2ccc(OCCCNC3CCCC3)cc2)cc1` gave an IC50 [1] of 2.19 µM.
`Cc1ccc2nc(N3CCN(CCO)CC3)nc(-c3ccccc3)c2c1` showed an IC50 [1] of 2.9 µM.
`C[C@@H](NS(=O)(=O)c1ccc(Cl)cc1)c1ccccc1` showed an IC50 [1] of 19.5 µM.
Work on `Cc1ccc(C)c(OCCCNCc2ccccc2)c1` yielded an IC50 [1] of 19.3 µM.
For `C[C@H](NS(=O)(=O)c1ccc(Br)cc1)c1ccccc1`, the IC50 [1] was 17.6 µM.
For `C[C@H](NS(=O)(=O)c1cccc(Br)c1)c1ccccc1`, the IC50 [1] was 10.2 µM.
Work on `CC(O)CNCCCOc1cccc(Oc2ccccc2)c1` (centres undefined) yielded an IC50 [1] of 6.96 µM.
